According to ChEMBL document CHEMBL3885861, “Open TG-GATES”:

Species: Rattus norvegicus
Assay: Open TG-GATES - Regimen: Daily Repeat
Assay type: toxicity, organism-based, Sprague-Dawley
Design: regimen Daily Repeat, gender Male, age 6 weeks
Conditions: in vivo, po, route gavage; for gamma-GTP / ALP / ALT / AST / BUN / CRE / Ca / Cl / DBIL / GLC / IP / K / LDH / Na / PL / RALB / TBIL / TC / TG / TP: tissue Plasma; for APTT / Bas / Eos / Fbg / Ht / Lym / MCH / MCHC / MCV / Mono / Neu / PT / Plat / RBC / Ret / WBC: tissue Blood; for KIDNEY_L / KIDNEY_R / KIDNEY_TOTAL: tissue Kidney; for LIVER: tissue Liver
[1] = 30 mg/kg, 72 h, dose level Middle, time 3 day
[2] = 30 mg/kg, […], dose level Middle, time 7 day
[3] = 30 mg/kg, […], dose level Middle, time 14 day
[4] = 30 mg/kg, […], dose level Middle, time 28 day

In the case of `Cc1cccc(Nc2cc(Cl)nc(SCC(=O)O)n2)c1C` [PIRINIXIC ACID], the gamma-GTP (10 mg/kg, […], dose level Low, time 28 day) is reported as 1.2 IU/L, the TERMINAL_BW [1] is reported as 229.5 g and the APTT [1] is reported as 15.8 s. The Bas [1] was 0%, the Eos [1] was 0.8% and the Fbg [1] was 199.8 mg/dL. The Ht [1] was 39.5%, the Lym [1] was 71.6% and the MCH [1] was 21.7 pg. The MCHC [1] was 34.3%, the MCV [1] was 63.4 fL and the Mono [1] was 3.2%. It also gave a Neu [1] of 23.8%, a PT [1] of 12.4 s and a Plat [1] of 106.4 x10_4/uL. The RBC [1] was 623.8 x10_4/ul, the Ret [1] was 5.5% and the WBC [1] was 85.4 x10_2/uL. It also gave a KIDNEY_L [1] of 1 g, a KIDNEY_R [1] of 1 g and a KIDNEY_TOTAL [1] of 2 g. It also gave an LIVER [1] of 15.1 g, an ALP [1] of 1953.2 IU/L and an ALT [1] of 77.6 IU/L. For the same compound, the AST [1] was 112 IU/L, the BUN [1] was 14 mg/dL and the CRE [1] was 0.2 mg/dL. For the same compound, the Ca [1] was 10.7 mg/dL, the Cl [1] was 106.4 meq/L and the DBIL [1] was 0.02 mg/dL. It also gave a GLC [1] of 192.6 mg/dL, an IP [1] of 7.1 mg/dL and a K [1] of 4 meq/L. The LDH [1] was 167 IU/L, the Na [1] was 143.6 meq/L and the PL [1] was 106.2 mg/dL. It also gave an RALB [1] of 2.6 g/dL, a TBIL [1] of 0.026 mg/dL and a TC [1] of 51 mg/dL. For the same compound, the TG [1] was 31.4 mg/dL, the TP [1] was 5.2 g/dL and the gamma-GTP [1] was 1 IU/L. For the same compound, the TERMINAL_BW [2] was 270.6 g, the TERMINAL_BW [3] was 309.3 g and the TERMINAL_BW [4] was 373.2 g. For the same compound, the APTT [2] was 18 s, the Bas [2] was 0% and the Eos [2] was 0.8%. For the same compound, the Fbg [2] was 230.8 mg/dL, the Ht [2] was 37.9% and the Lym [2] was 76.6%. The MCH [2] was 22.1 pg, the MCHC [2] was 34% and the MCV [2] was 64.9 fL. It also gave a Mono [2] of 3.2%, a Neu [2] of 19% and a PT [2] of 12.7 s. It also gave a Plat [2] of 115.8 x10_4/uL, an RBC [2] of 585.4 x10_4/ul and a Ret [2] of 5.5%. The WBC [2] was 114.2 x10_2/uL, the APTT [3] was 16.4 s and the Bas [3] was 0%. For the same compound, the Eos [3] was 1%, the Fbg [3] was 214 mg/dL and the Ht [3] was 38.2%. The Lym [3] was 76.8%, the MCH [3] was 21.1 pg and the MCHC [3] was 34.8%. For the same compound, the MCV [3] was 60.5 fL, the Mono [3] was 3.6% and the Neu [3] was 18.2%. For the same compound, the PT [3] was 12.8 s, the Plat [3] was 136.3 x10_4/uL and the RBC [3] was 631.8 x10_4/ul. For the same compound, the Ret [3] was 4.3%, the WBC [3] was 121.9 x10_2/uL and the APTT [4] was 15.2 s. It also gave a Bas [4] of 0%, an Eos [4] of 1% and a Fbg [4] of 223.8 mg/dL. It also gave a Ht [4] of 39.5%, a Lym [4] of 78% and an MCH [4] of 19.6 pg. For the same compound, the MCHC [4] was 34.9%, the MCV [4] was 56.2 fL and the Mono [4] was 3%. It also gave a Neu [4] of 17.6%, a PT [4] of 12.4 s and an RBC [4] of 703.4 x10_4/ul. The Ret [4] was 3.3%, the WBC [4] was 108.3 x10_2/uL and the KIDNEY_L [2] was 1.2 g. The KIDNEY_R [2] was 1.1 g, the KIDNEY_TOTAL [2] was 2.3 g and the KIDNEY_L [3] was 1.4 g. The KIDNEY_R [3] was 1.3 g, the KIDNEY_TOTAL [3] was 2.7 g and the KIDNEY_L [4] was 1.5 g. It also gave a KIDNEY_R [4] of 1.5 g, a KIDNEY_TOTAL [4] of 3 g and an LIVER [2] of 21.7 g. It also gave an LIVER [3] of 25.2 g, an LIVER [4] of 29.4 g and an ALP [2] of 1797.4 IU/L. The ALT [2] was 53 IU/L, the AST [2] was 71.8 IU/L and the BUN [2] was 19.4 mg/dL. It also gave a CRE [2] of 0.2 mg/dL, a Ca [2] of 11.2 mg/dL and a Cl [2] of 103 meq/L. It also gave a DBIL [2] of 0.014 mg/dL, a GLC [2] of 191.8 mg/dL and an IP [2] of 7 mg/dL. It also gave a K [2] of 4.1 meq/L, an LDH [2] of 180.2 IU/L and a Na [2] of 142.2 meq/L. The PL [2] was 139 mg/dL, the RALB [2] was 2.9 g/dL and the TBIL [2] was 0.032 mg/dL. For the same compound, the TC [2] was 71.6 mg/dL, the TG [2] was 46 mg/dL and the TP [2] was 6.1 g/dL. For the same compound, the gamma-GTP [2] was 1 IU/L, the ALP [3] was 1895.2 IU/L and the ALT [3] was 48.2 IU/L. The AST [3] was 66.6 IU/L, the BUN [3] was 19.2 mg/dL and the CRE [3] was 0.2 mg/dL. For the same compound, the Ca [3] was 10.5 mg/dL, the Cl [3] was 102.6 meq/L and the DBIL [3] was 0.016 mg/dL. The GLC [3] was 194.6 mg/dL, the IP [3] was 7.1 mg/dL and the K [3] was 3.9 meq/L. For the same compound, the LDH [3] was 114 IU/L, the Na [3] was 141.8 meq/L and the PL [3] was 144.4 mg/dL. It also gave an RALB [3] of 2.9 g/dL, a TBIL [3] of 0.034 mg/dL and a TC [3] of 69.6 mg/dL. It also gave a TG [3] of 51.6 mg/dL, a TP [3] of 6.1 g/dL and a gamma-GTP [3] of 1.4 IU/L. The ALP [4] was 1970.8 IU/L, the ALT [4] was 47.2 IU/L and the AST [4] was 62.4 IU/L. The BUN [4] was 18.2 mg/dL, the CRE [4] was 0.2 mg/dL and the Ca [4] was 10.7 mg/dL. For the same compound, the Cl [4] was 102.8 meq/L, the DBIL [4] was 0.012 mg/dL and the GLC [4] was 189.2 mg/dL. The IP [4] was 7.2 mg/dL, the K [4] was 3.7 meq/L and the LDH [4] was 111.4 IU/L. The Na [4] was 141.6 meq/L, the PL [4] was 149 mg/dL and the RALB [4] was 3 g/dL. It also gave a TBIL [4] of 0.05 mg/dL, a TC [4] of 70.6 mg/dL and a TG [4] of 55.4 mg/dL. It also gave a TP [4] of 6.5 g/dL.
